{"source": "paper PMC8247983", "about": "(Chemmedchem, 2021)", "target": "hBChE (Homo sapiens, UniProt P06276)", "sequence (P06276 29-602)": "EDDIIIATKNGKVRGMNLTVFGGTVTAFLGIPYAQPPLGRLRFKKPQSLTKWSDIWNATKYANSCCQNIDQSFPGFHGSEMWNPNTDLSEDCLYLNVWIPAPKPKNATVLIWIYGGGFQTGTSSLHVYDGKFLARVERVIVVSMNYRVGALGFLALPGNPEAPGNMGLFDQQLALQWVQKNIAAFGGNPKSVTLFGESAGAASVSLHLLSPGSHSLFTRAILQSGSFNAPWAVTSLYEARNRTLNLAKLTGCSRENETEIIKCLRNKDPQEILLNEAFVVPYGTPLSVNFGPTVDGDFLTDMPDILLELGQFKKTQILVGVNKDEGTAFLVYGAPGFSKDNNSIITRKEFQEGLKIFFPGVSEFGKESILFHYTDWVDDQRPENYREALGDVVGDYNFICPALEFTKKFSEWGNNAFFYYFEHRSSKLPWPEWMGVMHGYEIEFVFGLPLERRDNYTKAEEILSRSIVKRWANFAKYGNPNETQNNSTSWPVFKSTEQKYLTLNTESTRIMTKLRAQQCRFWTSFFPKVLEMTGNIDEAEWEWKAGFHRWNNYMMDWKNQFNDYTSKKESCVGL", "test": "Ellman's assay", "format": "biochemical", "data": [{"smiles": "CN1c2ccc(OC(=O)NCCCCCCN3CCOC(CF)C3)cc2CN2CCc3ccccc3C21", "note": "(racemic) [compound 2, 13‐Methyl‐5,8,13,13a‐tetrahydro‐6H‐isoquinolino[1,2‐b]quinazolin‐10‐yl‐{6‐[2‐(fluoromethyl)morpholino]‐hexyl}carbamate]", "values": [{"measurement": "IC50", "result": 0.0666, "unit": "µM"}]}]}
